As a reminder, the IC50 is the concentration at which inhibition is half-maximal.

Experiment [1] deals with T1, kappa opioid receptor (KOR) (Homo sapiens, UniProt P41145).
T1 construct: host or cells: U2OS (Tango OPRK1-bla U2OS)
The experiment is described as follows: OPRKappa 1 Tango B-Arrestin Assay, antagonist mode (Tango OPRK1-bla U2OS cells, U50488 EC80 challenge). Format: cell-based. Particulars: for Selectivity (MOR/KOR): Kappa selectivity, MOR IC50 / KOR IC50; for IC50: antagonist mode, Tango OPRK1-bla U2OS cells, 6 nM U50488 challenge. From the text:
OPRKappa 1 Tango B-Arrestin Assay Protocol-Antagonist Mode. […] The assay uses Tango OPRK1-bla U2OS cells which express OPRK1 linked to a GAL4-VP16 transcription factor via a TEV protease site. The cells also express a β-arrestin/TEV protease fusion protein and a β-lactamase (BLA) reporter gene under the control of a UAS response element. Stimulation of the OPRK1 receptor by agonist causes migration of the β-arrestin fusion protein to the GPCR, and through proteolysis liberates GAL4-VP16 from the receptor. The liberated VP16-GAL4 migrates to the nucleus, where it induces transcription of the BLA gene. BLA expression is monitored by measuring fluorescence resonance energy transfer (FRET) of a cleavable, fluorogenic, cell-permeable BLA substrate. As designed, test compounds that are OPRK1 antagonists inhibit agonist activation and migration of the fusion protein, thus preventing proteolysis of GAL4-VP16 and BLA transcription, leading to no increase in well FRET. Compounds were tested in quadruplicate using a 10-point, 1:3 dilution series starting at a nominal concentration of 10 micromolar.
The Tango OPRK1-U20S Dividing cell line was routinely cultured in 150 mm dishes at 37C, 5% CO2 and 95% relative humidity (RH).
On Day 1 of the assay, 16,000 cells in 10 μL of assay media (DMEM-Glutamax—with Sodium Pyruvate, 10% fetal bovine serum stripped with charcoal-dextran (CDS), 25 mM HEPES, 0.1 mM non-essential amino acids, antibiotic mix (penicillin streptomycin)) were seeded into each well of a 384 Greiner 788092 black low profile, clear bottom, low volume plate, and incubated 16-24 hours at 37° C., 5% CO2 and 95% (RH).
On Day 2, 50 nL of test compound in DMSO was added to the appropriate wells and plates were incubated for 30 min at 37° C. 5% CO2 and 95% (RH). Next was added 0.65 μL of commercially available U50488 OPRK1 agonist or DMSO in assay media: this EC80 Challenge consists of 0.6 μL of 111 nM U50488 to yield a final assay concentration of 6 nM). After incubation for 4 hours at 37° C., 5% CO2 and 95% (RH), 2.5 μL of LiveBLazer™FRET B/G (CCF4-AM) Mix (Soln.'s A,B,C,&D) was added to each well and incubated at room temperature in the dark for 2 hours. Well fluorescence was measured on Perkin Elmer's Envision using an Excitation filter 409 nm, Emission filters at 460 nm and […], bottom read.
(§1) The Percent Inhibition was calculated from the median ratio as follows:
• Tango™OPRK1-bla U20S Cells (Invitrogen K1576) • McCoy's 5A Medium, (Invitrogen 16600-082) • Dialyzed Fetal Bovine Serum, (Invitrogen 26400-036) • Non Essential Amino Acids 100× (Invitrogen part 11140-050) • HEPES (pH 7.3) 1M, (Invitrogen 15630-080) • Sodium Pyruvate 100× (Invitrogen 11360-070) • Penicillin Streptomycin, (Invitrogen 15640) • Trypsin 0.25% EDTA (Invitrogen 25200056) • DPBS without Calcium/Magnesium (Invitrogen 14190-136) • DMEM, High Glucose, GlutaMAX (Invitrogen 10569-010) • Fetal Bovine Serum, Charcoal Stripped (Invitrogen 12676-011) • DMSO Dry (Sigma D2650) • U50488 OPRK1 Agonist MW410.29 (Tocris 67198-19-0) • GNTI dihydrochloride OPRK1 Antagonist MW571.5 (Tocris 1282) • Nor-Binaltorphimine dihydrochloridc MW770.75 (Tocris 0347)
LiveBLAzere™-FRET/BG Loading Mix: (Invitrogen K1030 (5 mg)), composed of Solutions A, B, C, and D: • Solution A (6 μL): LiveBLAzer™-FRET/BG Substrate (CCF4-AM) • Solution B (60 μL) • Solution C (904 μL) • Solution C (must add 250 μl of 1N NaOH to 45 mL of Solution C prior to use) • Solution D (30 μL) [Probinicid] (Sigma P8161) make 200 mM stock in NaOH—H2O.

The target of the next experiment is T2, mu opioid receptor (MOR) (Homo sapiens, UniProt P35372).
T2 construct: host or cells: U2OS (Discover X OPRMu1-U2OS, PathHunter)
T2 sequence (P35372 whole entry): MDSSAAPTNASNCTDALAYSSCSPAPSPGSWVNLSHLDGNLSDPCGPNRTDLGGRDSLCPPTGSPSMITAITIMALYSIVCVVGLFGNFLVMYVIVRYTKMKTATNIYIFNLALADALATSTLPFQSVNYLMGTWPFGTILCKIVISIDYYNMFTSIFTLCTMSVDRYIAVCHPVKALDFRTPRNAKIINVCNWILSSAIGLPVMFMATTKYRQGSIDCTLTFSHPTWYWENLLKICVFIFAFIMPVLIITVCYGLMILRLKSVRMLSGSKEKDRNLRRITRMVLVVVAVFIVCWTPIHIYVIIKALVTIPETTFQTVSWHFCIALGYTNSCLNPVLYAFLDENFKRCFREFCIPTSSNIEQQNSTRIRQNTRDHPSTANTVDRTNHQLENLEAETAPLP
The experiment can be described thus: OPRMu1 Discover X β-arrestin Assay, antagonist mode (U2OS cells, DAMGO EC80 challenge). Format: cell-based.
Excerpt: OPRMu1 Discover X—β-arrestin Assay—Antagonist Mode. […] This assay evaluates the OPRMu1 activation in membrane recruitment of β-arrestin. In addition, the assay evaluates GPCR-β-arrestin proximity using low affinity fragment complementation of beta-galactosidase (beta-gal). The assay employs U20S cells, which express OPRMu1 fused to the complementary beta-gal fragment (enzyme acceptor). As designed, compounds that act as antagonists will prevent receptor activation resulting in reduced well luminescence. Compounds were tested in quadruplicate using a 10-point, 1:3 dilution series starting at a nominal concentration of 10 micromolar.
The Discover X OPRMu1-U20S cell line was cultured in 150 mm dishes at 37° C., 5% CO2 and 95% relative humidity (RH).
On Day 1 of the assay, 5000 cells in 20 μL of assay buffer (Discover X's Cell Plating Reagent 5) were seeded into each well of a 384 Corning 3570 standard white plate, and incubated 16-24 hours at 37° C., 5% CO2 and 95% RH.
On Day 2, 100 nL of test compound in DMSO were added to the appropriate wells and the plates were then incubated for 30 min at 37° C. 5% CO2 and 95% RH. Next, 2.2 μL of DAMGO OPRMu1 agonist (commercially available) or DMSO in assay media. (The EC80 Challenge consists of 1.8 μL of 3.7 μM DAMGO, 0.4 μL of Assay Buffer, with a final assay concentration of 303 nM). After incubation for 3 hours at 37° C. 5% CO2, and 95% RH, 10 μL of Path Hunter Detection Mix was added to each well, and the plate was then incubated at room temperature in the dark for 1 hour. Well luminescence was measured on Perkin Elmer's Envision.
as §1
• DMEM Medium, (Invitrogen 11965) • F12 Medium, (Invitrogen 11765) • Heat Inactivated Fetal Bovine Serum, (Invitrogen 10082147) • Non Essential Amino Acids 100× (Invitrogen 11140-050) • HEPES (pH 7.3) 1M, (Invitrogen 15630-080) • Sodium Pyruvate 100× (Invitrogen 11360-070) • Penicillin Streptomycin, (Invitrogen 15640) • Trypsin 0.25% EDTA (Invitrogen 25200056) • DPBS without Calcium/Magnesium (Invitrogen 14190-136) • DMSO Dry (Sigma D2650) • DAMGO OPRMu1 Agonist MW513.19 (Sigma E7384-5MG) • B-Funaltrexamine Hydrochloride OPRM1 Antagonist MW (SIGMA 0003-2MG) • PathHunter Cell Plating 5 Reagent (Discover X 93-0563R5A) • Corning 3750 Standard 384 well white plate with lid.
PathHunter Detection Mix (DiscoverX 93-0001): 1 part Galacton Star/5 parts Emerald II/19 parts PH Cell Assay Buffer.

Molecules are shown by their SMILES.

T1 sequence (P41145 whole entry): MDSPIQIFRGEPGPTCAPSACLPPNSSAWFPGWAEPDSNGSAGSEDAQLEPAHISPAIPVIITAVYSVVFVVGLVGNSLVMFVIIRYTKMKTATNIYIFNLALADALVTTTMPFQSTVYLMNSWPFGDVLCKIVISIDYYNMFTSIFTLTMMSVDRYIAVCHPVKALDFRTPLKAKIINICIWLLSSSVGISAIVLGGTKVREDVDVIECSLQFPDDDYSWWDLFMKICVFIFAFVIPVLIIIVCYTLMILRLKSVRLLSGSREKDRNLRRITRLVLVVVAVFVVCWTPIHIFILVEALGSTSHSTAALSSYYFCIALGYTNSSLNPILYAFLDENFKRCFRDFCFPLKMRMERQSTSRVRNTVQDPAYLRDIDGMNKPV

For `CCc1cc(F)c2nc(N3CCN(/C(=N\C#N)NC4CCOCC4)C[C@H]3C)c(-c3ccn(C)n3)c(C)c2c1` [Compound 11, (R,E)-N′-cyano-4-(6-ethyl-8-fluoro-4-methyl-3-(1-methyl-1H-pyrazol-3-yl)quinolin-2-yl)-3-methyl-N-(tetrahydro-2H-pyran-4-yl)piperazine-1-carboximidamide], in experiment [1], the “Selectivity (MOR/KOR)” value was “++ (between 10- and 100-fold selectivity)”; the IC50 fell in the range of 10 to 100 nM. The IC50 on mu opioid receptor (MOR) fell in the range of 1 to 10 nM.

As to `CCc1cc(-c2cc[nH]n2)c2nc(N3CCNC[C@H]3C)c(-c3ccn(C)n3)c(C)c2c1` [Compound 12, (R)-6-ethyl-4-methyl-3-(1-methyl-1H-pyrazol-3-yl)-2-(2-methylpiperazin-1-yl)-8-(1H-pyrazol-3-yl)quinoline], the “Selectivity (MOR/KOR)” value in experiment [1] is given as “+ (less than 10-fold selectivity)”. The IC50 in experiment [1] is at least 100 nM; against mu opioid receptor (MOR), over 1000 nM.

Take `CCc1cc(F)c2nc(N3CCNC[C@H]3C)c(-c3ccn(C)n3)c(C)c2c1` [Compound 13, (R)-6-ethyl-8-fluoro-4-methyl-3-(1-methyl-1H-pyrazol-3-yl)-2-(2-methylpiperazin-1-yl)quinoline]: the “Selectivity (MOR/KOR)” value in experiment [1] is “++ (between 10- and 100-fold selectivity)”. Besides, the values for the IC50 (in experiment [1]; against mu opioid receptor (MOR)) were at least 100 nM and over 1000 nM, respectively.

In the case of `CCc1cc(F)c2nc(N3CCC(N[C@@H]4CCOC[C@@H]4F)CC3)c(-c3cc(C)n(C)n3)c(C)c2c1` [Compound 14, 1-(3-(1,5-dimethyl-1H-pyrazol-3-yl)-6-ethyl-8-fluoro-4-methylquinolin-2-yl)-N-((3R,4R)-3-fluorotetrahydro-2H-pyran-4-yl)piperidin-4-amine], in experiment [1], the “Selectivity (MOR/KOR)” value is reported as “+++ (between 100- to 1000-fold selective)” and the concentration for half-maximal inhibition (IC50) was 1 to 10 nM. The 50% inhibitory concentration (IC50) at mu opioid receptor (MOR) was 100 to 1000 nM.

On to `CCc1cc(-c2ccnn2C)c2nc(N3CC[C@@H](NC4CCOCC4)[C@@H](F)C3)c(-c3ccn(C)n3)c(C)c2c1` [Compound 15, (3S,4R)-1-(6-ethyl-4-methyl-3-(1-methyl-1H-pyrazol-3-yl)-8-(1-methyl-1H-pyrazol-5-yl)quinolin-2-yl)-3-fluoro-N-(tetrahydro-2H-pyran-4-yl)piperidin-4-amine], for which, in experiment [1], the “Selectivity (MOR/KOR)” value was “++ (between 10- and 100-fold selectivity)”; the 50% inhibitory concentration (IC50) was 1 to 10 nM. On mu opioid receptor (MOR), this compound came in with an IC50 of 10 to 100 nM.

In the case of `CCc1cc(F)c2nc(N3CCC(N[C@H]4CCOC[C@@H]4O)CC3)c(-c3cc(C)n(C)n3)c(C)c2c1` [Compound 16, (3R,4S)-4-((1-(3-(1,5-dimethyl-1H-pyrazol-3-yl)-6-ethyl-8-fluoro-4-methylquinolin-2-yl)piperidin-4-yl)amino)tetrahydro-2H-pyran-3-ol], the “Selectivity (MOR/KOR)” value in experiment [1] was “++ (between 10- and 100-fold selectivity)”. Besides, the half-inhibitory concentration (IC50) in experiment [1] fell in the range of 1 to 10 nM; on mu opioid receptor (MOR), 100 to 1000 nM.

`CCc1cc(F)c2nc(N3CCC(N[C@@H]4CCOC[C@H]4O)CC3)c(-c3cc(C)n(C)n3)c(C)c2c1` [Compound 17, (3S,4R)-4-((1-(3-(1,5-dimethyl-1H-pyrazol-3-yl)-6-ethyl-8-fluoro-4-methylquinolin-2-yl)piperidin-4-yl)amino)tetrahydro-2H-pyran-3-ol]: in experiment [1], the “Selectivity (MOR/KOR)” value was “++ (between 10- and 100-fold selectivity)”; the IC50 fell in the range of 1 to 10 nM. This compound returned an IC50 against mu opioid receptor (MOR) of 100 to 1000 nM.

Take `CCc1cc(F)c2nc(N3CCC(N[C@H]4CCOC4)CC3)c(-c3cc(C)n(C)n3)c(C)c2c1` [Compound 18, (S)-1-(3-(1,5-dimethyl-1H-pyrazol-3-yl)-6-ethyl-8-fluoro-4-methylquinolin-2-yl)-N-(tetrahydrofuran-3-yl)piperidin-4-amine]: the “Selectivity (MOR/KOR)” value in experiment [1] is listed as “+++ (between 100- to 1000-fold selective)”. In addition, the IC50 in experiment [1] was 1 to 10 nM; against mu opioid receptor (MOR), over 1000 nM.

For `CCc1cc(F)c2nc(N3CCC(NCC4(F)CC4)CC3)c(-c3cc(C)n(C)n3)c(C)c2c1` [Compound 19, 1-(3-(1,5-dimethyl-1H-pyrazol-3-yl)-6-ethyl-8-fluoro-4-methylquinolin-2-yl)-N-((1-fluorocyclopropyl)methyl)piperidin-4-amine], in experiment [1], the “Selectivity (MOR/KOR)” value is “+++ (between 100- to 1000-fold selective)” and the IC50 lay in the range of 1 to 10 nM. The IC50 against mu opioid receptor (MOR) lay in the range of 100 to 1000 nM.

With `CCc1cc(-c2ccnn2C)c2nc(N3CCC(N[C@@H]4CCOC[C@@H]4F)CC3)c(-c3ccn(C)n3)c(C)c2c1` [Compound 20, 1-(6-ethyl-4-methyl-3-(1-methyl-1H-pyrazol-3-yl)-8-(1-methyl-1H-pyrazol-5-yl)quinolin-2-yl)-N-((3R,4R)-3-fluorotetrahydro-2H-pyran-4-yl)piperidin-4-amine], in experiment [1], the “Selectivity (MOR/KOR)” value is “++ (between 10- and 100-fold selectivity)”; the half-inhibitory concentration (IC50) was under 1 nM. Besides, the IC50 on mu opioid receptor (MOR) was 10 to 100 nM.

For `CCc1cc(-c2ccnn2C)c2nc(N3CCC(N[C@H]4CCOC[C@H]4F)CC3)c(-c3ccn(C)n3)c(C)c2c1` [Compound 21, 1-(6-ethyl-4-methyl-3-(1-methyl-1H-pyrazol-3-yl)-8-(1-methyl-1H-pyrazol-5-yl)quinolin-2-yl)-N-((3S,4S)-3-fluorotetrahydro-2H-pyran-4-yl)piperidin-4-amine], in experiment [1], the “Selectivity (MOR/KOR)” value is “++ (between 10- and 100-fold selectivity)”; the half-maximal inhibitory concentration (IC50) is 1 to 10 nM. At mu opioid receptor (MOR), this compound had an IC50 of 10 to 100 nM.
